Measured values from ChEMBL document CHEMBL1145434, “Optimization of novel combi-molecules: identification of balanced and mixed bcr-abl/DNA targeting properties” (Bioorg Med Chem Lett, 2007).
The source made the active and inactive calls. No cut-off for these calls is given here.

Key:
K562 = test: cells; details: Homo sapiens
Description: Cytotoxicity against K562 cells by MTT assay

[1] = molecular target: Tyrosine-protein kinase ABL1 (Homo sapiens, UniProt P00519)
Homo sapiens = organism: Homo sapiens; test: Effect on DNA damage in p210 transfected M07 cells; assay type: functional, cell-based

Tyrosine-protein kinase ABL1, sequence (P00519 whole entry): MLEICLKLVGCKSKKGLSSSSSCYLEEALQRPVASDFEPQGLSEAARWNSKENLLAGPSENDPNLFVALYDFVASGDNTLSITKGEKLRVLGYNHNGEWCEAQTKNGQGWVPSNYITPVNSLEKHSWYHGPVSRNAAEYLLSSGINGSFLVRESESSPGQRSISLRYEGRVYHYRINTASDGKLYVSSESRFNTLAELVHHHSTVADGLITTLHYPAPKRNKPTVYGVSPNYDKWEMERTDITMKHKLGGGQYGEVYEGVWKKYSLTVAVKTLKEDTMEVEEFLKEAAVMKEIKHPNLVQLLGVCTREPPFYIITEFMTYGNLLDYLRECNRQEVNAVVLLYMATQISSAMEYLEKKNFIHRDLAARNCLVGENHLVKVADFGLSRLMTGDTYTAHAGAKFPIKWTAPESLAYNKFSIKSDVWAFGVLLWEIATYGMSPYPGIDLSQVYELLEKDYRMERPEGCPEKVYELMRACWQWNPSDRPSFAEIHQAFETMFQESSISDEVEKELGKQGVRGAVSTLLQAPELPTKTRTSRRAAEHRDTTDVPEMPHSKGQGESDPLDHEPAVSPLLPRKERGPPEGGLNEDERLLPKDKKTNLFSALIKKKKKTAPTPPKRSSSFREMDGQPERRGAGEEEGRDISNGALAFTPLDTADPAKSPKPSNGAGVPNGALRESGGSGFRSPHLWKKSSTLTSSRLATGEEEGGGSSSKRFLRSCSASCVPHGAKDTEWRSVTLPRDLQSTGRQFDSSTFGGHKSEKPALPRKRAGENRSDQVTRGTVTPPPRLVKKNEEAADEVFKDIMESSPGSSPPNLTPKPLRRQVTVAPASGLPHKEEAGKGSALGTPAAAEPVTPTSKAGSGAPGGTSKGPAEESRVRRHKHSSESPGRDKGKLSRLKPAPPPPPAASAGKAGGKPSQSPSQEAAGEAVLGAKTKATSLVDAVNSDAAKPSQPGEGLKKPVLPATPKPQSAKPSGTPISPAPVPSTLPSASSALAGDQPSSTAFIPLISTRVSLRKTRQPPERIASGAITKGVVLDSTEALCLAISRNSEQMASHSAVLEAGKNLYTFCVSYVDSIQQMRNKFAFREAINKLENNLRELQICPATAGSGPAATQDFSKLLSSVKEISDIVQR

Row | SMILES | IC50 (K562) [nM] | IC50 [1] [nM] | Activity (Homo sapiens)
1 | Cc1ccc(NC(=O)c2ccc(N=NN(C)CO)c(C(F)(F)F)c2)cc1Nc1nccc(-c2cccnc2)n1 | 187 | – | –
2 | Cc1ccc(NC(=O)c2ccc(N)cc2)cc1Nc1nccc(-c2cccnc2)n1 | – | > 10000 | –
3 | Cc1ccc(NC(=O)c2ccc(CN(CCCl)CCCl)cc2)cc1Nc1nccc(-c2cccnc2)n1 | > 100000 | > 10000 | –
4 | Cc1ccc(NC(=O)c2ccc(N)c(C(F)(F)F)c2)cc1Nc1nccc(-c2cccnc2)n1 | 316 | – | –
5 | Cc1ccc(NC(=O)c2ccc(CN(C)CCCl)cc2)cc1Nc1nccc(-c2cccnc2)n1 | 79700 | – | –
6 | CNN=Nc1ccc(C(=O)Nc2ccc(C)c(Nc3nccc(-c4cccnc4)n3)c2)cc1Cl | 9980 | – | –
7 | Cc1ccc(NC(=O)c2ccc(N=NN(C)C)c(C(F)(F)F)c2)cc1Nc1nccc(-c2cccnc2)n1 | 52 | – | –
8 | CNN=Nc1ccc(C(=O)Nc2ccc(C)c(Nc3nccc(-c4cccnc4)n3)c2)cc1C(F)(F)F | 113 | – | Active
9 | Cc1ccc(NC(=O)c2ccc(N(CCCl)CCCl)cc2)cc1Nc1nccc(-c2cccnc2)n1 | 2460 | 220 | –
